Where a name gives a salt, the structure may show the parent alone.
How the values were obtained:
[1] = target: Sigma non-opioid intracellular receptor 1 (Cavia porcellus) (UniProt Q60492); assay: Inhibition of specific binding of [125I]-PIPAG to sigma binding site in Guinea pig brain membranes
[2] = target: Sigma non-opioid intracellular receptor 1 (Cavia porcellus) (UniProt Q60492); assay: Inhibition of specific binding of [3H]NANM of sigma binding site in Guinea pig brain membranes
[3] = target: Sigma non-opioid intracellular receptor 1 (Cavia porcellus) (UniProt Q60492); assay: Inhibition of specific binding of [3H]DTG to sigma binding site in Guinea pig brain membranes
[4] = Inhibition of specific binding of [3H]3-PPP to sigma binding site in Guinea pig brain membranes
[5] = Inhibition of specific binding of [3H]3-PPP to sigma receptor in Guinea pig brain membranes
[6] = Inhibition of specific binding of [3H]DTG to sigma receptor in Guinea pig brain membranes

Sigma non-opioid intracellular receptor 1 (Cavia porcellus), sequence (Q60492 whole entry, looked up): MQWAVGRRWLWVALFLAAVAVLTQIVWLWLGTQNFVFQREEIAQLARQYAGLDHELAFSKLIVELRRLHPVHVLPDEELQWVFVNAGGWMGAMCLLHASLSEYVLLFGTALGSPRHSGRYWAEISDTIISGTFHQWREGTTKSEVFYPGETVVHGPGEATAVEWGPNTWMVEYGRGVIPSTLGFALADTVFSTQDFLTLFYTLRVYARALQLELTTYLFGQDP

Row | Structure (SMILES) | IC50 [1] [nM] | IC50 [2] [nM] | IC50 [3] [nM] | IC50 [4] [nM] | IC50 [5] [nM] | IC50 [6] [nM]
1 | CN1CCc2cccc3c2[C@H]1Cc1ccc(O)c(O)c1-3 [APOKYN] | > 10000 | > 31000 | > 10000 | – | – | –
2 | C=CCN1CC[C@]23c4c5ccc(O)c4O[C@H]2[C@@H](O)C=C[C@H]3[C@H]1C5 [NALORPHINE HYDROCHLORIDE] | 5000 | 1800 | 4000 | 2850 | 93 | 625
